According to US9034863B2, “Compositions and methods for inhibiting entry of a hepatic virus” (The Board of Trustees of the University of Illinois, priority 2008, dated 2015):

How the values were obtained:
[1] = tested on: intergenotypic HCVcc chimeras; assay: Cell-to-cell spread of intergenotypic HCVcc chimeras in non-growing Huh7-1 cells; type: cell-based, Hepatitis C virus (HCV)
Excerpt: To determine if ezetimibe might be an effective therapeutic for inhibiting HCV spread of other HCV genotypes, intergenotypic HCVcc chimeras were used, in which the core through E2 region of the JFH-1 clone had been replaced with analogous regions of various HCV genotypes including H77C, J4, J8, ED43, SA13, HK6A and QC69 (Gottwein, et al. (2009) Hepatology 49(2):364-77). Again, to avoid issues of cell division, non-growing Huh7-1 cells were infected with the different chimeric viruses, and after 16 hours, the cells were washed and 0 μM or 30 μM ezetimibe was added to parallel cultures. Since the chimeras encode unique E2 proteins and thus may have differing sensitivity to inhibition by the anti-E2 antibody, in this experiment methyl cellulose was added to all cultures as an alternative means of minimizing cell-free virus spread. Seventy-two hours post-infection, the cells were fixed and stained with an antibody to HCV NS5A to detect the size of the foci formed. In all cases, the size of foci formed by each chimera were reduced in the presence of ezetimibe relative to the mock-treated control culture confirming not only that all of these genotypes use the NPC1L1 receptor for cell-to-cell spread, but that the spread of all the chimeric viruses can be inhibited by ezetimibe.
To determine if naringenin affects spread of any of the other HCV genotypes, non-growing Huh7-1 cells were infected with the different intergenic chimeric viruses and after 16 hours, the cells were washed and naringenin was added. Methyl cellulose was added to each well to prevent cell-free virus spread. In parallel, a control set of wells was treated with methyl cellulose alone. Five days post-infection, the cells were fixed and stained to detect the number of HCV NS5A-positive cells.

HCV-JFH-1 = assay: Chronic HCV-JFH-1 infection of Huh7-1 cells, inhibitor combinations, RT-qPCR 24-96 h (FIG. 3-5); type: cell-based, Hepatitis C virus (HCV)
Description: RT-qPCR analysis of intracellular HCV RNA levels in Huh7 cultures mock-treated, treated with ezetimibe (30 μM), PI (200 nM), IFN-α (100 U/ml), or indicated combinations thereof (n=3). Data presented are representative of multiple independent experiments.
FIG. 4A, Chronically infected Huh7-1 cell cultures (n=3) treated with ezetimibe (E), naringenin (N), interferon α (I), or combinations thereof, were harvested at 24, 48, 72 or 96 hours post-treatment, intracellular HCV levels were quantified by RT-qPCR, and are presented as HCV copies/μg RNA. FIG. 4B, Chronically infected Huh7-1 cell cultures (n=3) treated with ezetimibe (E), ferristatin (T), interferon α (I), or combinations thereof, were harvested at 24, 48, 72 or 96 hours post-treatment, intracellular HCV levels were quantified by RT-qPCR, and are presented as HCV copies/μg RNA.
Shown are the results of RT-qPCR analysis of intracellular HCV RNA levels in Huh7 cultures mock-treated, treated with ezetimibe (30 μM), polymerase inhibitor, RG7128 (1 μM), or a combination thereof (n=3).
For experiments analyzing the activity of ezetimibe in combination with a protease inhibitor, Huh7-1 cells were infected with HCV-JFH-1 and allowed to reach steady state levels of infection. The HCV-infected cells were seeded in a 96-well plate and treated with the following: medium alone, 30 μM ezetimibe, 200 nM ITMN5537, 100 μ/ml IFN-α, and combinations of the above drugs at the specified concentrations. Medium and drugs were replaced every 24 hours. Triplicate wells were harvested at 24, 48, 72 or 96 hours post-treatment, in 200 μl/well of 1×ABI lysis buffer and stored at −80° C. until RNA extraction.
Therefore, the therapeutic potential of an IFN-free antiviral cocktail was also investigated, using ezetimibe in combination with other direct acting inhibitors of HCV amplification, specifically an inhibitor of the HCV NS3/4A protease (ITMN 5537; Intermune, Brisbane, Calif.). Huh7-1 cells were infected with HCV-JFH-1 and allowed to reach steady state levels of infection. Cells were monotreated with protease inhibitor (PI) or ezetimibe or IFN alone or treated with combinations of PI+ezetimibe or PI+IFN or IFN+ezetimibe or a combination of all three inhibitors. Samples were harvested at 24, 48, 72 or 96 hours post-treatment, the intracellular RNA was extracted and RT-qPCR performed to quantify HCV copies.
Thus, parallel cultures of chronically infected Huh7-1 cells were established and subsequently treated with ezetimibe, naringenin or IFN-α, either alone or in combination. Treatments were replenished every 24 hours. Triplicate cultures of each treatment condition were harvested at 24, 48, 72 or 96 hours post-treatment and intracellular HCV levels were quantified by RT-qPCR (FIG. 4A). […] Thus, no evidence of synergy was observed when IFN-α was combined with an egress inhibitor that only blocks cell-free spread.
As an alternative method of determining the therapeutic importance of inhibiting HCV cell-to-cell spread, an inhibitor to TfR1 was used. TfR1 has also been identified as another host cell factor that is involved in cell-free entry of HCV into cells, but is not required for cell-to-cell-mediated HCV entry. Thus, unlike ezetimibe which inhibits both cell-free and cell-to-cell HCV spread, the TfR1 inhibitor, ferristatin, only blocks cell-free virus spread. Again, chronically infected Huh7-1 cell cultures were established and treated with ezetimibe (30 μM), ferristatin (50 μM), or IFN-α (100 U/ml), either alone or in combination and treatments were replenished every 24 hours. Intracellular HCV copies were quantified from triplicate cultures by RT-qPCR at 24, 48, 72 or 96 hours post-treatment (FIG. 4B).
Huh7-1 cells were infected with HCV-JFH-1 and allowed to reach steady state levels of infection. Cells were monotreated with HCV polymerase inhibitor RG7128 (1 μM) or ezetimibe (30 μM) alone or treated with a combination of RG7128 and ezetimibe. […]

Compound | size of foci formed by each chimera ([1]; 30 μM, methyl cellulose, 72 hours post-infection, relative to mock-treated) | reduction of HCV levels (FIG. 5) (HCV-JFH-1; RG7128 1 μM, ezetimibe 30 μM, normalized to Mock) | reduction of HCV levels (FIG. 3) (HCV-JFH-1; ezetimibe 30 μM, PI 200 nM, IFN-α 100 U/ml) | decrease in intracellular HCV load (FIG. 4B) (HCV-JFH-1; ezetimibe 30 μM, ferristatin 50 μM, IFN-α 100 U/ml) | reduction of HCV copies (FIG. 4A) (HCV-JFH-1; ezetimibe, naringenin, IFN-α alone or in combination) | size of foci, J8/JFH-1 (2B/JFH-1) chimera ([1]; J8/JFH-1 chimera) | cell-to-cell spread of chimeric viruses ([1]; all chimeric viruses except J8/JFH-1, five days post-infection) | increase in intracellular HCV copies (FIG. 4A) (HCV-JFH-1; naringenin alone)
O=C1[C@H](CC[C@H](O)c2ccc(F)cc2)[C@@H](c2ccc(O)cc2)N1c1ccc(F)cc1 [ezetimibe, 1-(4-fluorophenyl)-(3R)-[3-(4-fluorophenyl)-(3S)-hydroxypropyl]-(45)-(4-hydroxyphenyl)-2-azetidinone] | reduced | did not reduce HCV levels | did not reduce HCV levels | neither ezetimibe nor ferristatin alone reduced intracellular HCV load | did not reduce HCV levels |  |  | 
O=C1C[C@@H](c2ccc(O)cc2)Oc2cc(O)cc(O)c21 [naringenin] |  |  |  |  |  | reduced the size of foci | not inhibited | about 50%
